Data: patent US20260231998A1, “COMPOSITIONS FOR MODULATING GUT MICROFLORA POPULATIONS, TREATMENT OF DYSBIOSIS AND DISEASE PREVENTION, AND METHODS FOR MAKING AND USING SAME” (PERSEPHONE BIOSCIENCES, INC., priority 2023, published 2026)

What was measured:
[1] = test system: Bifidobacterium infantis strain PB-STR-093; assay: Antibiotic susceptibility (MIC) of isolated strains, EFSA standards; assay type: cell-based; settings: observed value
Protocol: In alternative embodiments the complete genome sequence of each organism is screened to ensure it contains no genes or pathogenicity island gene clusters encoding known virulence factors, toxins, or antibiotic resistance functions, using publicly available databases such as DBETH55 (for example, see Chakraborty A, et al. (2012) Nucleic Acids Res. 40:615-620) and VFDB56 (Chen L, et al. (2005) Nucleic Acids Res. 33:325-328). Each organism is evaluated by standard antibiotic sensitivity profile techniques such as broth microdilution susceptibility panels or plate-based methods such as disk diffusion method and antimicrobial gradient method (James H. Jorgensen and Mary Jane Ferraro 2009 Clinical Infectious Diseases 49:1749-1755). Such tests determine the minimal inhibitory concentration (MIC) of an antibiotic on microbial growth. Antibiotics evaluated include but are not limited to amoxicillin, amoxicillin/clavulanic acid, carbapenem, methicillin, ampicillin, gentamicin, metronidazole, vancomycin, and neomycin. MIC determinations of novel microbes are compared to published values for both sensitive and resistant related strains to make an assessment on sensitivity (CLSI Guideline M45: Methods for Antimicrobial Dilution and Disk Susceptibility Testing of Infrequently Isolated or Fastidious Bacteria. Wayne, PA; 2015) to determine possible relative increases in antibiotic resistance.

[2] = test system: Bifidobacterium infantis strain PB-STR-093; settings: expected value based on the EFSA standards; cited from earlier work
[3] = test system: simulated gut environment; assay: Simulated gut environment: community composition after introduction of bacteria and/or prebiotics (whole genome sequencing); assay type: cell-based, human; settings: B. infantis combined with lacto-N-tetraose (LNT)
Protocol: The ability of a bacterial addition (representing a probiotic application) to shift the composition of the gut environment was evaluated through the introduction of Bifidobacterium infantis isolate PB-STR-093.
Fifteen different combinations were evaluated covering Bifidobacterium infantis, Bifidobacterium longum, Bifidobacterium breve, and Bifidobacterium bifidum (shown in table 31, where the numerical value for each combination represents the ratio of the microbe in the combination). […] Compositions were also evaluated for their ability to reduce pathogenic species, as well as their metabolic output.

[4] = test system: Streptococcus vestibularis; assay: Simulated gut environment: levels of potentially pathogenic bacteria; assay type: cell-based; settings: LNT as carbon source together with B. infantis
Protocol: (§1) To understand the applicability of in vitro observations to the human gut, strains are evaluated in the context of a simulated gut environment. These gut environments are produced with minimal media and seeded with FMT aliquots (Example 2) to reproduce an environment that represents the gut. In these environments, the introduction of prebiotics (in the form of carbon sources, nitrogen sources, and other small molecules) and the introduction of bacteria can be used to shift the community composition, metabolic output, and immunological impact of the gut environments. This allows prebiotic, probiotic, and synbiotic (prebiotic and, probiotic) combinations to be rapidly evaluated to confirm or reject observations determined in simpler systems such as single strain microbial cultures. In subsequent embodiments, machine learning will be used to further reduce the space that must be explored experimentally.

Escherichia coli = assay: as above; assay type: cell-based; settings: LNT as carbon source together with B. infantis
Protocol: as §1

[5] = Growth (OD600) of isolated microbial strains on medium with different carbon sources; assay type: cell-based
Protocol: The growth of isolated strains is evaluated to determine their ability to consume carbon sources and produce specific metabolites. Strains are grown in a minimal media (for example 2 grams (2 ml fine) peptone water (peptone, 10 g/L sodium chloride, 5 g/L), 2 grams yeast extract, 2 grams NaHCO3, 0.1 g NaCl, 0.04 g K2HPO4, 0.04 g KH2PO4, 0.01 g MgSO4·7H2O, 0.01 g CaCl2·6H2O, 2 ml Tween 80, 10 g carbohydrate of choice, 10 μl vitamin K, 0.5 g cysteine, 0.5 g bile salts) that affords control over carbon source. Examples of carbon sources evaluated (independently or in combination) include but are not limited to glucose, lactose, galactose, fructose, xylose, galactooligosaccharides, fructooligosaccharides, xylooligosaccharides, lacto-N-tetraose, lacto-N-neotetraose, 2′-fucosyllactose, 3-fucosyllactose, 3′-sialyllactose, and 6′-sialyllactose. Growth is evaluated by determination of the OD600, which can be performed either on individual samples with a cuvette or tube-based spectrometer (for example the CO 75000™ colorimeter) or on multiple samples in a plate-based format using a plate reader (for example CYTATION 3™). In both cases, values are normalized based on signals from media alone.
Select bacteria were evaluated for their ability to consume different carbon sources to aid in selection of live biotherapeutic (probiotic) bacteria and combinations, mixes and consortia of bacteria as provided herein, and prebiotic combinations (see Table 6) used in compositions and methods as provided herein;

Row | Molecule | Observed Antibiotic MIC [1] [µg/mL] | Expected Antibiotic MIC [2] [µg/mL] | further results
1 | CC1(C)S[C@@H]2[C@H](NC(=O)[C@H](N)c3ccccc3)C(=O)N2[C@H]1C(=O)O [Ampicillin] | 2 | 2 | –
2 | O=C(N[C@H](CO)[C@H](O)c1ccc([N+](=O)[O-])cc1)C(Cl)Cl [Chloramphenicol] | 4 | 4 | –
3 | CCC[C@@H]1C[C@@H](C(=O)N[C@@H]([C@H]2O[C@H](SC)[C@H](O)[C@@H](O)[C@H]2O)[C@H](C)Cl)N(C)C1 [Clindamycin] | 0.125 | – | –
4 | CC[C@H]1OC(=O)[C@H](C)[C@@H](O[C@H]2C[C@@](C)(OC)[C@@H](O)[C@H](C)O2)[C@H](C)[C@@H](O[C@@H]2O[C@H](C)C[C@H](N(C)C)[C@H]2O)[C@](C)(O)C[C@@H](C)C(=O)[C@H](C)[C@@H](O)[C@]1(C)O [Erythromycin] | 1 | 1 | –
5 | CC(=O)N[C@H]1[C@H](O[C@H]2[C@@H](O)[C@@H](CO)O[C@@H](O[C@H]3[C@H](O)[C@@H](O)C(O)O[C@@H]3CO)[C@@H]2O)O[C@H](CO)[C@@H](O)[C@@H]1O[C@@H]1O[C@H](CO)[C@H](O)[C@H](O)[C@H]1O (some centres unmarked) [LNT, lacto-N-tetraose] | – | – | growth, engraftment and abundance of Bifidobacterium infantis in the sample [3]: further boosts the abundance of Bifidobacterium infantis; level of Streptococcus vestibularis in simulated gut environment [4]: further reduces the presence of these bacteria; level of Escherichia coli in simulated gut environment (Escherichia coli): further reduces the presence of these bacteria
6 | [H]/N=C(/N)N[C@H]1[C@H](O)[C@@H](O)[C@H](O[C@@H]2O[C@@H](C)[C@](O)(C=O)[C@H]2O[C@@H]2O[C@@H](CO)[C@H](O)[C@@H](O)[C@@H]2NC)[C@@H](N/C(N)=N\[H])[C@@H]1O [Streptomycin] | 32 | 128 | –
7 | CN(C)[C@@H]1C(O)=C(C(N)=O)C(=O)[C@@]2(O)C(O)=C3C(=O)c4c(O)cccc4[C@@](C)(O)[C@H]3C[C@@H]12 [Tetracycline] | 4 | – | –
8 | CN[C@H](CC(C)C)C(=O)N[C@H]1C(=O)N[C@@H](CC(N)=O)C(=O)N[C@H]2C(=O)N[C@H]3C(=O)N[C@H](C(=O)N[C@H](C(=O)O)c4cc(O)cc(O)c4-c4cc3ccc4O)[C@H](O)c3ccc(c(Cl)c3)Oc3cc2cc(c3O[C@@H]2O[C@H](CO)[C@@H](O)[C@H](O)[C@H]2O[C@H]2C[C@](C)(N)[C@H](O)[C@H](C)O2)Oc2ccc(cc2Cl)[C@H]1O [Vancomycin] | 0.5 | 2 | –
9 | Bacteroides fragilis | – | – | OD(600) after 24 hours growth ([5]; carbon source 2′-FL): 0.261; OD(600) after 24 hours growth ([5]; carbon source 3′-SL): 0.457; OD(600) after 24 hours growth ([5]; carbon source FOS): 0.433; OD(600) after 24 hours growth ([5]; carbon source GOS): 0.325; OD(600) after 24 hours growth ([5]; carbon source Glucose): 0.353; OD(600) after 24 hours growth ([5]; carbon source LNT): 0.337; OD(600) after 24 hours growth ([5]; carbon source Mucin): 0.186; OD(600) after 24 hours growth ([5]; carbon source XOS): 0.359; OD(600) after 24 hours growth ([5]; medium with No Carbohydrate): 0.073
10 | Gentamicin | 64 | 64 | –
